Results on 6 substances are retold here after patent US8088916B2, “Hyaluronic acid-methotrexate conjugate” (priority 2004, dated 2012).

The test system of data set [1] is arthritis model in which pathosis occurs in the knee joint. Nature of the data set: Intra-articular administration to an arthritis model in which pathosis occurs in the knee joint. The format is in vivo. The note with it: intra-articularly administered; summary statement.
Data set [2] deals with mBSA-induced monoarthritis model. The experiment in a line: Suppressive effect on knee joint swelling in mBSA-induced monoarthritis model. The format is in vivo, rat. The note with it: for AUC (% of control) (mean ± SEM): AUC of knee joint swelling to two weeks after induction, control = HA-treated group, 50 μL into right knee joint 7 and 1 day before and 7 days after induction. The method, then: An in vivo synovitis-suppressing effect of each HA-MTX conjugate of the invention was assessed on the basis of a suppressive effect on knee joint swelling in a methylated bovine serum albumin (mBSA)-induced monoarthritis model of rat. Since the mBSA-induced arthritis model employed in this experimental example is widely used as an antigen-induced arthritis model, and known to develop synovitis (Sven E. Andersson, et al., The Journal of Rheumatology (1998) 25: 9, 1772-7), the in vivo knee joint swelling-suppressing effect observed in this model conceivably represents a synovitis-suppressing effect. The compounds of the invention suppressing synovitis in vivo are useful as therapeutic drugs for joint diseases accompanied by synovitis (RA, OA, and the like).
The animal used was the LEW/Crj rat (6-week old male, from Charles River Laboratories Japan, Inc.). Into the flank of the rat was subcutaneously injected 0.5 mL of an emulsion prepared from a 2 mg/mL mBSA (Calbiochem) aqueous solution and an equal amount of Freund's complete adjuvant (Difco) 21 and 14 days before inducing arthritis. The arthritis was induced by administering 50 μL of a 2 mg/mL mBSA aqueous solution into the right knee joint. The left knee joint was untreated, and served as control in each individual. Each test substance (sterile aqueous solution) and the control drug hyaluronic acid were each administered into the right knee joint in an amount of 50 μL 7 and 1 day before and 7 days after inducing arthritis.
The determination of knee joint swelling involved measuring the widths of both knee joints with calipers to define the left/right difference (right knee diameter-left knee diameter) as a knee joint swelling. The width of each knee joint was measured at a frequency of twice a week from immediately before inducing arthritis to two weeks later to calculate AUC (an abbreviation for Area Under the Curve; here, it means an area under a curve with time for the joint swelling) from the transition thereof with time. At each measurement, the mean and standard deviation of AUC were calculated to perform an unpaired t-test between each test substance-treated group and the HA-treated group, and significant difference was judged to be present if the probability level is less than 5%. Statistical analysis used SAS version 6.12 (SAS Institute Japan). In addition, the AUC of each test substance was calculated, using that in the HA-treated group as a control, as a relative value (% of control) therefor.
To verify the usefulness of the HA-MTX conjugate of the invention, the suppressive effect on joint swelling was compared, in accordance with the method of Example 3, among: 1) a group treated with the HA-MTX conjugate (sterile aqueous solution) prepared in Example 2-2; 2) a group treated with a solution containing MTX of an amount equal to that of MTX contained in the HA-MTX conjugate; and 3) a group of treated with a mixture (HA+MTX) of MTX and hyaluronic acid (HA) of amounts equal to those contained in the conjugate. The transition of knee joint swelling with time in this test is shown in FIG. 2, and the AUC thereof in FIG. 3.

Data set [3] deals with collagenase-induced arthritis (OA) model. Nature of the data set: Suppressive effect on knee joint swelling in collagenase-induced arthritis (OA) model. The format is in vivo, rat. Particulars: AUC of knee joint swelling to 20 days after induction; 50 μL into right knee joint once a week from 7 and 1 day before induction; compared with HA-treated group. How it is done:
An in vivo synovitis-suppressing effect of the HA-MTX conjugate was evaluated in collagenase-induced OA model rats. The collagenase-induced OA model is a model in which inflammation has been induced within the knee joint by injecting collagenase into the knee joint to directly digest collagen in cartilage tissue. […] Therefore, the compound of the invention suppressing inflammation in the model and inhibiting cartilage degeneration therein will be useful as a therapeutic drug for OA.
The animal used was the SD/Crj rat (6-week old male, from Charles River Laboratories Japan, Inc.). Into the articular cavity of the right knee was administered 50 μL of 1.5% collagenase (Sigma) solution to induce arthritis. The left knee joint was untreated to use as a control in each individual. Each test substance was administered into the right knee joint in an amount of 50 μL once a week from 7 and 1 day before inducing arthritis.
The determination of knee joint swelling involved measuring the widths of both knee joints with calipers to determine the left/right difference (right knee diameter-left knee diameter), which was defined as a knee joint swelling. The width of each knee joint was measured on the order of twice a week from immediately before inducing arthritis to 20 days later to calculate AUC from a graph showing the transition thereof with time. At each measurement, the mean and standard error of the mean of AUC were calculated to perform an unpaired t-test between each test substance-treated group and the HA-treated group, and significant difference was judged to be present if the probability level is less than 5%.

The test system of data set [4] is human synovial cells (HFLS). Nature of the data set: Anti-proliferative effect on synovial cells stimulated by TNF-α ([3H]-deoxyuridine uptake). The format is cell-based. Particulars: TNF-α 10 ng/mL, 5 days culture, concentration calculated as MTX from conjugation rate. From the text: An effect of the HA-MTX conjugates of the invention on cell proliferation induced by TNF-α stimulation was examined using human synovial cells (HFLS). The main lesion in rheumatoid arthritis (RA) occurs in the synovial tissue, and, as one of the features, it is known that synovial cells abnormally proliferate to form a granulation tissue (pannus) and thereby destroy the cartilage and bone of the joint. Secondary synovitis is also observed in osteoarthritis (OA). […] Thus, a compound inhibiting the proliferation of synovial cells stimulated by the inflammatory cytokine TNF-α suppresses the progression of the pathologic conditions of RA and OA and becomes a therapeutic drug therefor. The sterile aqueous solutions of the HA-MTX conjugates in Example 2 (Table 2) were used as test substances. HFLS (CA40405, Lot Nos. 1413 and 1493) was purchased from Cell Applications Ins. for use. HFLS was seeded at 5,000 cells/well on a 96-well plate (Falcon) and cultured for 3 hours in Iscove's modified Dulbecco's medium (IMDM) containing 5% FBS and 1× Antibiotic-Antimycotic (GIBOC). After cellular attachment, TNF-α (final concentration: 10 ng/mL) and each HA-MTX conjugate at each concentration was added, followed by cultivation for 5 days. Two days before the end of culture, was added 37 kBq/well of [^3H]-deoxyuridine in the cells (MORAVEK), followed by determining the uptake quantity (radioactivity) of [^3H]-deoxyuridine using a scintillation counter. Cells were recovered by unsticking them with 0.05% trypsin-0.2% EDTA. Radioactivity determined in each of the experiments with each test substance was calculated as a relative value (% of control), using, as control, radioactivity in the group of cells cultured without adding any test substance. […] GraphPad Prism 3.02).

A short description of data set [5]: Measurement of viscoelasticity. In kind it is physicochemical. The note with it: sterile solutions, 37° C., cone 4 cm, CSL500 stress-controlled rheometer; FIG. 1. How it is done: The viscoelasticities of the sterile solutions of hyaluronic acids (molecular weights: 1,900,000 and 800,000) and the conjugates of Examples 2-1, 2-8, 2-18, 2-27, and 2-29 were measured at 37° C. using a cone 4 cm in diameter by a CSL500 stress-controlled rheometer (from Carri-Med Ltd.).

Regarding hyaluronic acid [HA], the “alleviating effect on synovitis” value in data set [1] is given as “not seen with HA”.

As a reminder, the IC50 is the concentration that inhibits the measured activity by half. For “MTX-α-PhePhe-NHC10H2OO3NH-HA [Example 2-8]”, the “AUC (% of control) (mean ± SEM)” value in data set [2] is reported as 54.9 ± 7.2 % of control; in data set [3], 54.8 ± 5.9 % of control. The IC50 in data set [4] was 840 nM. Besides, in data set [5], the viscoelasticity result is “viscoelasticities intermediate between those of the hyaluronic acids having molecular weights of 800,000 and 1,900,000”.

As for “MTX-α-Ile-NHC10H20O3NH-HA [Example 2-27]”, the figures for the “AUC (% of control) (mean ± SEM)” value in data set [2] and in data set [3] were 75.1 ± 6.8 % of control and 82.6 ± 5.2 % of control, respectively. The IC50 in data set [4] is 3100 nM. For the same substance, in data set [5], the viscoelasticity result was “viscoelasticities intermediate between those of the hyaluronic acids having molecular weights of 800,000 and 1,900,000”.

MTX-α-PhePhe-NHC2H4NH-HA [Example 2-2]: the “AUC (% of control) (mean ± SEM)” value in data set [2] is listed as 45.0 ± 6.8 % of control; in data set [3], 48.9 ± 3.7 % of control. Further, the “suppressive effect on joint swelling / alleviating effect on synovitis” value in data set [2] (Experimental Example 4: conjugate vs equal amount of MTX vs mixture HA+MTX, FIGS. 2 and 3) is “markedly strong suppressive effect on the joint swelling in the arthritis model compared to that of MTX alone or the mixture of MTX and HA”. For the same substance, the IC50 in data set [4] is 140 nM.

As to “MTX-α-PheGly-NHC10H20O3NH-HA [Example 2-18]”, the “AUC (% of control) (mean ± SEM)” value in data set [2] is 61.5 ± 4.7 % of control; in data set [3], 65.9 ± 3.5 % of control. For the same substance, the IC50 in data set [4] is 9200 nM. Besides, the viscoelasticity result in data set [5] is “viscoelasticities intermediate between those of the hyaluronic acids having molecular weights of 800,000 and 1,900,000”.

Consider MTX-α-PhePhe-NHC2H4NH-HA [Example 2-1], for which the “AUC (% of control) (mean ± SEM)” value in data set [2] is on record as 48.5 ± 5.3 % of control; in data set [3], 45.7 ± 3.9 % of control. The IC50 in data set [4] is 360 nM. Besides, the viscoelasticity entry in data set [5] is “viscoelasticities intermediate between those of the hyaluronic acids having molecular weights of 800,000 and 1,900,000”.
